Experiments:
[1] = target: T1, Casein kinase I isoform alpha-like (Homo sapiens) (UniProt Q8N752); assay: Selectivity interaction (KinomeScan (DiscoverX)) EUB0000229b CSNK1A1L; conditions: at 10 µM
T1 sequence (whole entry): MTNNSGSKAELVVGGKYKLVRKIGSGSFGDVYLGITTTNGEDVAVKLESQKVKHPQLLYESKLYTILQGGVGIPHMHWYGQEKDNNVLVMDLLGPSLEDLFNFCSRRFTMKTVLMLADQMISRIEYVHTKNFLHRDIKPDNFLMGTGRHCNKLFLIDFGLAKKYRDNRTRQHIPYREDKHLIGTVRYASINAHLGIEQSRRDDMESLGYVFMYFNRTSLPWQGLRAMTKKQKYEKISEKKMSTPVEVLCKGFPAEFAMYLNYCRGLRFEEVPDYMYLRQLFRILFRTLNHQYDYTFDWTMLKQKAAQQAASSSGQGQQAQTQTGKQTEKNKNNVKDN

[2] = target: T2, Serine/threonine-protein kinase D3 (Homo sapiens) (UniProt O94806); conditions: at 10 µM
T2 sequence (whole entry): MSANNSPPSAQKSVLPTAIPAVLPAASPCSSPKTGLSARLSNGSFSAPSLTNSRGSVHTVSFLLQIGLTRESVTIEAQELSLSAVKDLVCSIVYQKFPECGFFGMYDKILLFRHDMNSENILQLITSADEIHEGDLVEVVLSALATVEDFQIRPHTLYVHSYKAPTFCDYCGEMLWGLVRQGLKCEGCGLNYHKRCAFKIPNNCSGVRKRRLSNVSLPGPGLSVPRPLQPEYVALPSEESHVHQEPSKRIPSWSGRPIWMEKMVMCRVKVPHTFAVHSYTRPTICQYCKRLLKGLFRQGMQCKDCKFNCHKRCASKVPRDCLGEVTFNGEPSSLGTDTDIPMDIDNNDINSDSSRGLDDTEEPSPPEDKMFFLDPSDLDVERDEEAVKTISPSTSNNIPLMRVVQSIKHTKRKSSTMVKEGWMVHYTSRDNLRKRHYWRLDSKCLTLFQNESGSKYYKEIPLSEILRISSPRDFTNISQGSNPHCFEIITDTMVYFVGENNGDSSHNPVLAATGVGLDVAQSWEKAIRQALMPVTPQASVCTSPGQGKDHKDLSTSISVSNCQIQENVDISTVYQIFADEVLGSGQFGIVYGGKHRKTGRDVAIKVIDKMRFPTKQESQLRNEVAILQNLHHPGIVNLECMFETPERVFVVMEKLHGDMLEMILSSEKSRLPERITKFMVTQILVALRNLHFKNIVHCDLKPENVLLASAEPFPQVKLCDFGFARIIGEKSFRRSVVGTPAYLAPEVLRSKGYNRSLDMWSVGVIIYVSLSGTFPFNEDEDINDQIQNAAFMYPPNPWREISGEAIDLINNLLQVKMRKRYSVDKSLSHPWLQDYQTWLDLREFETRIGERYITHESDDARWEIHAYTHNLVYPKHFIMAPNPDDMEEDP

[3] = target: Ephrin type-A receptor 2 (Homo sapiens) (UniProt P29317); assay: Selectivity interaction (KinomeScan (DiscoverX)) EUB0000655a EPHA2; conditions: at 10 µM
Chain of Ephrin type-A receptor 2 (Homo sapiens) (P29317 whole entry, canonical isoform): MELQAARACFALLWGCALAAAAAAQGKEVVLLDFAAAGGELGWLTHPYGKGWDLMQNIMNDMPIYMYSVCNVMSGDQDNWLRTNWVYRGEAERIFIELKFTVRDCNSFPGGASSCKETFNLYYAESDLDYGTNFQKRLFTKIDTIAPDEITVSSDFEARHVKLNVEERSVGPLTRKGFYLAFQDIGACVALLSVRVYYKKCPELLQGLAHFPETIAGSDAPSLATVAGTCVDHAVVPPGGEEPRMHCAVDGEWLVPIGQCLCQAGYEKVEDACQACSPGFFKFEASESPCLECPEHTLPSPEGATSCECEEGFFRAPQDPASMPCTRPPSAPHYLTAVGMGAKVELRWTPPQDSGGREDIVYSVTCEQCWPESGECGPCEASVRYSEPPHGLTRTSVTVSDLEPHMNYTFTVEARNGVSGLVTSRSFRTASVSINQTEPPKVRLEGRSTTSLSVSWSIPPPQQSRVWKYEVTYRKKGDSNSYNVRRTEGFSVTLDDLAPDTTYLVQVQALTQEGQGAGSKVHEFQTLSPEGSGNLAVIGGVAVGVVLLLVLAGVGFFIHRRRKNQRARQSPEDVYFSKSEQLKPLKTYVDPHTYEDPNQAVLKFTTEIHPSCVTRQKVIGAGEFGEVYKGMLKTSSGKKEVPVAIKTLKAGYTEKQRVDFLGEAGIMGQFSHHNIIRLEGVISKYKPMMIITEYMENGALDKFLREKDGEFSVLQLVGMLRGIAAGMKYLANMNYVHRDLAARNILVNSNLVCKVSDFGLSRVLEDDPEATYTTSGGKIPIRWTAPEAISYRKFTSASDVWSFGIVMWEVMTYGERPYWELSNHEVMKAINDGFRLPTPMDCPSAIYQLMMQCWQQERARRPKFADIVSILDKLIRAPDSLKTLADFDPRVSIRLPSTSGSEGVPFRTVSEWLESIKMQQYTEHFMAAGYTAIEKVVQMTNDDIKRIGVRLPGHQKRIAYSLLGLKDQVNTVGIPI

[4] = target: Casein kinase I isoform gamma-3 (Homo sapiens) (UniProt Q9Y6M4); assay: Selectivity interaction (Kinase panel (Z-LYTE Assay)) EUB0001632a CSNK1G3; conditions: at 10 µM
Chain of Casein kinase I isoform gamma-3 (Homo sapiens) (Q9Y6M4 whole entry, looked up, canonical isoform): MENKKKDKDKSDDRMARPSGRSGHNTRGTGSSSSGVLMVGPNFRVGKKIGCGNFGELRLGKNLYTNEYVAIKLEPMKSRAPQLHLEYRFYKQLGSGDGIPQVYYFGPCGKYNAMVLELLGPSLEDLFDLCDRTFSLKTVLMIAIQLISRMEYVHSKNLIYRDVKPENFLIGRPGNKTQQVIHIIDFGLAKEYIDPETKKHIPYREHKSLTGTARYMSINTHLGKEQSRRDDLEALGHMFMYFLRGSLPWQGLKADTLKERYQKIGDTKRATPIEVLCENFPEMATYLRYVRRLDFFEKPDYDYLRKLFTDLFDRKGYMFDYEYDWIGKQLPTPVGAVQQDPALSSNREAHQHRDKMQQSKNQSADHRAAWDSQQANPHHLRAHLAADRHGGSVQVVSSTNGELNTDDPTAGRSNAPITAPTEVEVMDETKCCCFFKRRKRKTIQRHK

[5] = target: T3, Serine/threonine-protein kinase BRSK2 (Homo sapiens) (UniProt Q8IWQ3); assay: Selectivity interaction (ProQinase) EUB0000171b BRSK2
T3 sequence (whole entry): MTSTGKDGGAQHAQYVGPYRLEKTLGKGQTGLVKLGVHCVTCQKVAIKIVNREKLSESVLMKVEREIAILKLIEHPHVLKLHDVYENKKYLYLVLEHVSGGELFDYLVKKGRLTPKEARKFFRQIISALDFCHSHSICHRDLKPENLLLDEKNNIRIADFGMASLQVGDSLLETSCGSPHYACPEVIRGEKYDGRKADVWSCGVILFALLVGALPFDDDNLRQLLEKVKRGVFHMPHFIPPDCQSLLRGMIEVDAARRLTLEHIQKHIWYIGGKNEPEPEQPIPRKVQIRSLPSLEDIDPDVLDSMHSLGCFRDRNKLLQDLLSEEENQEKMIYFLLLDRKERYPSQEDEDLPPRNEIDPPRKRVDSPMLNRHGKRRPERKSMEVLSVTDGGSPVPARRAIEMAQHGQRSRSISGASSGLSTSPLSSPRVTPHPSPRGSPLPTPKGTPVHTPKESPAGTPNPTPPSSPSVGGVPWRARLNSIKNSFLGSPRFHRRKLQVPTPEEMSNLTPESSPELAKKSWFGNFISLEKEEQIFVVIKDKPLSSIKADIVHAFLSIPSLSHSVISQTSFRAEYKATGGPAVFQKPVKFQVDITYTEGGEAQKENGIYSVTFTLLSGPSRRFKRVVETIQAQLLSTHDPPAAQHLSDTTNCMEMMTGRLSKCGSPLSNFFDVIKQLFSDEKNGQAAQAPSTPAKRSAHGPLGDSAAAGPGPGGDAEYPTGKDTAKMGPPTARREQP

Structure (SMILES): COc1cc(N(C)c2ccnc3ccc(C(F)(F)F)cc23)cc(OC)c1OC
- % binding [1]: 85%

Structure (SMILES): Cc1cc([C@@H](C)Nc2ccccc2C(=O)O)c2nc(N3CCOCC3)cc(=O)n2c1 [AZD-6482]
- % of control [2]: 100%

Structure (SMILES): CN(C)CCOc1ccc(-c2nc(-c3ccncc3)c(-c3ccc4c(c3)CC/C4=N\O)[nH]2)cc1
- % of control [3]: 83%

Structure (SMILES): Cn1cc(-n2cnc3c(NCc4nc5cc(Cl)c(Cl)cc5[nH]4)nc(N4CCOCC4)nc32)cn1
- % of control [4]: 6.17%

Structure (SMILES): C=CC(=O)Nc1cccc(C(=O)Nc2ccc(Nc3cc(-c4[nH]c(SC)nc4C)ccn3)cc2)c1
- % of control ([5]; at 1 µM): 103%
- % of control ([5]; at 5 µM): 85%

Source: ChEMBL document CHEMBL5465560, “Selectivity Literature for EUbOPEN Chemogenomic Library” (2024)
